In general, IC50 refers to the concentration that gives 50% inhibition.

SMILES strings stand for the structures. Structures can show the parent of a compound that is named as a salt.

The record followed here is patent US8871753B2, “Macrocyclic compounds and their use as kinase inhibitors” (Incyte Corporation, priority 2008, dated 2014).

Holding throughout (format): biochemical
The target in experiment [1] is T1, human JAK2 (a.a. 828-1132) (Homo sapiens, UniProt O60674).
T1 construct: JAK2 (a.a. 828-1132); His tag (N); made in house; host or cells: insect cells (baculovirus)
T1 sequence (O60674 828-1132): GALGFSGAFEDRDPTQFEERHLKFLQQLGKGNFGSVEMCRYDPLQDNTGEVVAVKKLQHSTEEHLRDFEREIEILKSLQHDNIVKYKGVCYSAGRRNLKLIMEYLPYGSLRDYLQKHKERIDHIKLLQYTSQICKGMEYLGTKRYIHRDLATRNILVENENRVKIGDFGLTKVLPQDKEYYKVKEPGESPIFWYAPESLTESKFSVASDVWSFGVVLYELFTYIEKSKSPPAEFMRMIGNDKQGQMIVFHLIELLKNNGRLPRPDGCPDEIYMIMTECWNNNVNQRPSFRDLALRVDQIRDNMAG
Nature of the experiment: In vitro JAK kinase assay (HTRF, phosphorylation of a biotinylated peptide), JAK2. Particulars: Table D1. Summed up: (§1)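 Phosphorylation of a biotinylated peptide by the JAK kinase domain, detected by HTRF with Eu-Py20 and SA-APC. ATP was 90 μM for JAK1, 30 μM for JAK2 and 3 μM for JAK3. Reactions ran 1 h at room temperature and were stopped with EDTA, followed by 40 min antibody binding.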
(TR-FRET usually uses a lanthanide donor and a delayed reading to cut background.)

Experiment [2] addresses T2, Recombinant Human Anaplastic Lymphoma Kinase (Homo sapiens, UniProt Q9UM73).
T2 construct: purchased Invitrogen, Carlsbad, Calif
Nature of the experiment: ALK HTRF kinase assay. Particulars: Table D1; 90 μM ATP. Summed up: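 Biotinylated peptide substrate, recombinant human ALK; detection via europium-chelate antibody to phosphotyrosine paired with streptavidin-APC. Potency expressed as IC50 from four-parameter curve fitting.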

The target of the next experiment is TYK2 (Homo sapiens, UniProt P29597). The experiment is described as follows: TYK2 kinase inhibition (Table A1). Particulars: Table D1.
Chain of TYK2 (P29597 whole entry): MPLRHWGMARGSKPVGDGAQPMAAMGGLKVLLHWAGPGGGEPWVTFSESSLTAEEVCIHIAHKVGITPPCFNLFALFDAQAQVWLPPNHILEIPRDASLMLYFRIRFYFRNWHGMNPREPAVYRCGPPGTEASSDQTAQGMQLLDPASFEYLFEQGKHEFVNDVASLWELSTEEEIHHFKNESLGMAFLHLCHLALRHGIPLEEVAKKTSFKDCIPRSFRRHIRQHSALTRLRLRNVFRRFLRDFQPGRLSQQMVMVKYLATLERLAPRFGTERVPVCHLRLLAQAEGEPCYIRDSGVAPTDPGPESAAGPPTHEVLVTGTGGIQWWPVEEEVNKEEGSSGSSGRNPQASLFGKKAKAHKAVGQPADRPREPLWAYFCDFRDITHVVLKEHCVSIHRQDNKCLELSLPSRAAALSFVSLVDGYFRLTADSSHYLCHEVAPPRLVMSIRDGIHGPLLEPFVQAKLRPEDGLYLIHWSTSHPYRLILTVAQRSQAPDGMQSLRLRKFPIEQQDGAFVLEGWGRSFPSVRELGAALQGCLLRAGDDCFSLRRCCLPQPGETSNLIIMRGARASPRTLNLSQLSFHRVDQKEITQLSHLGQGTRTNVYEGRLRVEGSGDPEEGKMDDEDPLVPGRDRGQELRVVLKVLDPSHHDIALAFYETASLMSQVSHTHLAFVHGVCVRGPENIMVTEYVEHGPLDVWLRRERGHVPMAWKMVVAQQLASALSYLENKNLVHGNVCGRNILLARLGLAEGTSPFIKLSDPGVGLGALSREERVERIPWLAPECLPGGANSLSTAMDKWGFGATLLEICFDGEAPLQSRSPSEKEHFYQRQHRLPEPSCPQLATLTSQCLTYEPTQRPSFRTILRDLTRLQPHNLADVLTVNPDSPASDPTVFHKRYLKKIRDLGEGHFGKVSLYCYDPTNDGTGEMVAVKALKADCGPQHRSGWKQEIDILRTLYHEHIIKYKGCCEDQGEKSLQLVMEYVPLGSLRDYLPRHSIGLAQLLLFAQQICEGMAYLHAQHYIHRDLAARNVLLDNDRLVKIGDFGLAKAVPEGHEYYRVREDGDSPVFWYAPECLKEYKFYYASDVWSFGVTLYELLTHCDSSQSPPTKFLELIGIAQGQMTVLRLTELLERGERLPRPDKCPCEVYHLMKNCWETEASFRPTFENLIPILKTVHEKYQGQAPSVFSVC
For experiment [3], the target named is T3, human JAK3 (a.a. 781-1124) (Homo sapiens, UniProt P52333).
T3 construct: JAK3 (a.a. 781-1124); His tag (N); made in house; host or cells: insect cells (baculovirus)
T3 sequence (P52333 781-1124): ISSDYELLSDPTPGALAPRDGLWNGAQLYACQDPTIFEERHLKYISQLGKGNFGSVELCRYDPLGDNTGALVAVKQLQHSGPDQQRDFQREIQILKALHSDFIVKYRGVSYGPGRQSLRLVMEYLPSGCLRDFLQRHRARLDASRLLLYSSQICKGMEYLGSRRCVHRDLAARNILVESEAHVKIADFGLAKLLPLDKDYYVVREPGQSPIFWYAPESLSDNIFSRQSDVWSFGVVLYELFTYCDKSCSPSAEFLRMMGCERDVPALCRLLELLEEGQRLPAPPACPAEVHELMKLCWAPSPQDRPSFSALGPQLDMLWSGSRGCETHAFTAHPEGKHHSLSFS
The experiment is described as follows: In vitro JAK kinase assay (HTRF, phosphorylation of a biotinylated peptide), JAK3. Particulars: Table D1. Summed up:
as §1

Experiment [4] has as its target T4, human JAK1 (a.a. 837-1142) (Homo sapiens, UniProt P23458).
T4 construct: human JAK1 (a.a. 837-1142); His tag (N); made in house; host or cells: insect cells (baculovirus)
Nature of the experiment: In vitro JAK kinase assay (HTRF, phosphorylation of a biotinylated peptide), JAK1. Particulars: Table D1; read-out: JAK1 IC50. Summed up:
as §1

T2 sequence (Q9UM73 19-1620): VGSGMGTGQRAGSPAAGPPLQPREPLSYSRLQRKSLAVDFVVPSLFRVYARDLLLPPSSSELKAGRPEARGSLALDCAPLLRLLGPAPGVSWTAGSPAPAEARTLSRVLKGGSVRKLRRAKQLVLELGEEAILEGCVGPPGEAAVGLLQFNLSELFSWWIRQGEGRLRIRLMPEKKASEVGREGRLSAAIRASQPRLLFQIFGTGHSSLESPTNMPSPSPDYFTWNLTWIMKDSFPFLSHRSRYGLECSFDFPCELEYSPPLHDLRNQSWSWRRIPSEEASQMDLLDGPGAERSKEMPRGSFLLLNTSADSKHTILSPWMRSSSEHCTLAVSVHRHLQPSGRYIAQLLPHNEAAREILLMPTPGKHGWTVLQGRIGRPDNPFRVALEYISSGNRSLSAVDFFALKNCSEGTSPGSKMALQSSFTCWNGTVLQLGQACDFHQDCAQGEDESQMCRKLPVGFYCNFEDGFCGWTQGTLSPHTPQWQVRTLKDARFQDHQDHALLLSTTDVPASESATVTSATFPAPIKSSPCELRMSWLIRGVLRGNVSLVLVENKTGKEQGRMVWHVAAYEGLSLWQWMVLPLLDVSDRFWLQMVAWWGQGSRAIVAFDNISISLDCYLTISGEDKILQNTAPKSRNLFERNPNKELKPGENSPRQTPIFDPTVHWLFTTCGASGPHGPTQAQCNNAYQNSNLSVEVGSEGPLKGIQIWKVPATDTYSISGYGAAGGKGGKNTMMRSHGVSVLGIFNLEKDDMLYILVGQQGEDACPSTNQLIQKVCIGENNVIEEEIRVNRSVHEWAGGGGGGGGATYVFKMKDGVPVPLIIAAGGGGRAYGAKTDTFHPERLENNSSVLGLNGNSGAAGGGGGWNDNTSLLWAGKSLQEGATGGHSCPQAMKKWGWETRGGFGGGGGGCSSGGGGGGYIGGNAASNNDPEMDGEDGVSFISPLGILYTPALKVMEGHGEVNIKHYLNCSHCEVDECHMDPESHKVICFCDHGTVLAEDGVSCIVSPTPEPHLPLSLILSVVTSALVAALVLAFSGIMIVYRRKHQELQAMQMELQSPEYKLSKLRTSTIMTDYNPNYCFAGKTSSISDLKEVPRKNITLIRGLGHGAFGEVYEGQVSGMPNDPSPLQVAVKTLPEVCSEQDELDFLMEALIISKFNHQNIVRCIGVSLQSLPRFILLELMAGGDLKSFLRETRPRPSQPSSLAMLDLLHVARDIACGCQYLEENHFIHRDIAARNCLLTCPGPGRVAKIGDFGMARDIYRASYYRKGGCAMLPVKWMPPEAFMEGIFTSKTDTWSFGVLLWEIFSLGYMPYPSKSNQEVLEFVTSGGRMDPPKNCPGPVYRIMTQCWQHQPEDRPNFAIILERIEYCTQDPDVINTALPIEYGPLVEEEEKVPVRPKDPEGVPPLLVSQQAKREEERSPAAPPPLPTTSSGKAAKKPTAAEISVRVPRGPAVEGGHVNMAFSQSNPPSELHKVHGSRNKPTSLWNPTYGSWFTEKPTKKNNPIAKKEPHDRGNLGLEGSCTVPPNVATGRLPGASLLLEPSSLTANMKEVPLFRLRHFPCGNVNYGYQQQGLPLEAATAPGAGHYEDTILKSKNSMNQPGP
T4 sequence (P23458 849-1154): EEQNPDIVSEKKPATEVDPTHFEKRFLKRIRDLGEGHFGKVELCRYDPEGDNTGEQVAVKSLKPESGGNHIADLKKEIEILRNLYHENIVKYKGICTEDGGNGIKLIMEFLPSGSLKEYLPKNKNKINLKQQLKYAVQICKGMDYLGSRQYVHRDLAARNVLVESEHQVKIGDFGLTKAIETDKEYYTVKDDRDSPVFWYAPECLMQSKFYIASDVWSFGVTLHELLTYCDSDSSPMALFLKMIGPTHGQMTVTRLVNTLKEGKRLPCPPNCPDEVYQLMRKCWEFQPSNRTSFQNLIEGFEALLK

As for `Clc1cnc2nc1Nc1cccc(c1)CSCCc1cccc(c1)N2` [Example D32, 6-Chloro-15-thia-2,4,8,24-tetraazatetracyclo[16.3.1.1(3,7).1(9,13)]tetracosa-1(22),3(24),4,6,9(23),10,12,18,20-nonaene trifluoroacetate], the IC50 is 43 nM in experiment [1]; above 1000 nM in experiment [2]; 45 nM against TYK2; 84 nM in experiment [3]; 41 nM in experiment [4].
`Clc1cnc2nc1Nc1cccc(c1)OCCc1cc(cc(-c3ccc(N4CCNCC4)nc3)c1)N2` [Example D33, 6-Chloro-19-(6-piperazin-1-ylpyridin-3-yl)-14-oxa-2,4,8,23-tetraazatetracyclo[15.3.1.1(3,7).1(9,13)]tricosa-1(21),3(23),4,6,9(22),10,12,17,19-nonaene tris(trifluoroacetate)]: the IC50 in experiment [1] worked out at 0.7 nM; in experiment [2] it was 108 nM; against TYK2, 4 nM; in experiment [3] it was 12 nM; in experiment [4], 1.8 nM.
`Clc1cnc2nc1Nc1cccc(c1)CCSCc1cccc(c1)N2` [Example D34, 6-Chloro-16-thia-2,4,8,24-tetraazatetracyclo[16.3.1.1(3,7).1(9,13)]tetracosa-1(22),3(24),4,6,9(23),10,12,18,20-nonaene trifluoroacetate]: the IC50 in experiment [1] was 91 nM; in experiment [2], above 1000 nM; against TYK2, 211 nM; in experiment [3] it was 136 nM; in experiment [4], 123 nM.
For `CC(=O)N1CCN(c2cc(-c3cc4cc(c3)Nc3ncc(Cl)c(n3)Nc3cccc(c3)OCC4)ccn2)CC1` [Example D35, 19-[2-(4-Acetylpiperazin-1-yl)pyridin-4-yl]-6-chloro-14-oxa-2,4,8,23-tetraazatetracyclo[15.3.1.1(3,7).1(9,13)]tricosa-1(21),3(23),4,6,9(22),10,12,17,19-nonaene bis(trifluoroacetate)], the IC50 in experiment [1] was found to be 0.4 nM; in experiment [2] it was 150 nM; at TYK2 it was 4.3 nM; in experiment [3] it was 7.7 nM; in experiment [4] it was 0.7 nM.
With `CS(=O)(=O)N1CCN(c2cc(-c3cc4cc(c3)Nc3ncc(Cl)c(n3)Nc3cccc(c3)OCC4)ccn2)CC1` [Example D36, 6-Chloro-19-{2-[4-(methylsulfonyl)piperazin-1-yl]pyridin-4-yl}-14-oxa-2,4,8,23-tetraazatetracyclo[15.3.1.1(3,7).1(9,13)]tricosa-1(21),3(23),4,6,9(22),10,12,17,19-nonaene bis(trifluoroacetate)], the IC50 amounted to 0.4 nM in experiment [1]; 225 nM in experiment [2]; 4.9 nM at TYK2; 4.9 nM in experiment [3]; 1.3 nM in experiment [4].
Take `CC(=O)N1CCN(c2ccc(-c3cc4cc(c3)Nc3ncc(Cl)c(n3)Nc3cccc(c3)OCC4)cn2)CC1` [Example D37, 19-[6-(4-Acetylpiperazin-1-yl)pyridin-3-yl]-6-chloro-14-oxa-2,4,8,23-tetraazatetracyclo[15.3.1.1(3,7).1(9,13)]tricosa-1(21),3(23),4,6,9(22),10,12,17,19-nonaene tris(trifluoroacetate)]: the IC50 in experiment [1] worked out at 0.7 nM; in experiment [2] it was 248 nM; against TYK2 it was 1.4 nM; in experiment [3], 9.9 nM; in experiment [4] it was 0.9 nM.
Consider `CS(=O)(=O)N1CCN(c2ccc(-c3cc4cc(c3)Nc3ncc(Cl)c(n3)Nc3cccc(c3)OCC4)cn2)CC1` [Example D38, 6-Chloro-19-{6-[4-(methylsulfonyl)piperazin-1-yl]pyridin-3-yl}-14-oxa-2,4,8,23-tetraazatetracyclo[15.3.1.1(3,7).1(9,13)]tricosa-1(21),3(23),4,6,9(22),10,12,17,19-nonaene bis(trifluoroacetate)], for which the IC50 in experiment [1] amounted to 0.9 nM; in experiment [2], 442 nM; on TYK2, 4 nM; in experiment [3] it was 19 nM; in experiment [4], 1.1 nM.
